Experimental findings from ChEMBL document CHEMBL5291721, “A preclinical secondary pharmacology resource illuminates target-adverse drug reaction associations of marketed drugs” (Nat Commun, 2023) are described below.

For assay [1], the target named is T1, Amine oxidase [flavin-containing] A (Homo sapiens, UniProt P21397).
T1 sequence (P21397 whole entry): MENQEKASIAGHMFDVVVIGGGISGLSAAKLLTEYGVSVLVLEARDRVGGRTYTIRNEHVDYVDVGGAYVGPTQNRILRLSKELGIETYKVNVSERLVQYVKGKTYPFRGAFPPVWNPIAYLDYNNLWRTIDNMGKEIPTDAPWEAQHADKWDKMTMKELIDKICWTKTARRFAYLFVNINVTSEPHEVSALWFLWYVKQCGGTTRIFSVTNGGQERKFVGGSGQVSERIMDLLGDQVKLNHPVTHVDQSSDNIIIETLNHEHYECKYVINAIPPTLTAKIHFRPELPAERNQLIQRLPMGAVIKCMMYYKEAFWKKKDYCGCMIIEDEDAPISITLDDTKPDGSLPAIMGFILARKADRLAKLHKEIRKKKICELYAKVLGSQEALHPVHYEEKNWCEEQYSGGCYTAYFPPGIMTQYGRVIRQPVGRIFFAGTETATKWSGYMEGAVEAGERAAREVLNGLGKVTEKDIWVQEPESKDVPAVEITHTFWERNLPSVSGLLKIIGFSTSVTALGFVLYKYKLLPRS
The format is functional.

In assay [2] the target is Sodium-dependent dopamine transporter (Homo sapiens, UniProt Q01959).
For assay [3], the target named is D(1A) dopamine receptor (Homo sapiens, UniProt P21728).
The target of assay [4] is Acetylcholinesterase (Homo sapiens, UniProt P22303). The format is functional.
In assay [5] the target is T2, Androgen receptor (Homo sapiens, UniProt P10275).
T2 sequence (P10275 whole entry): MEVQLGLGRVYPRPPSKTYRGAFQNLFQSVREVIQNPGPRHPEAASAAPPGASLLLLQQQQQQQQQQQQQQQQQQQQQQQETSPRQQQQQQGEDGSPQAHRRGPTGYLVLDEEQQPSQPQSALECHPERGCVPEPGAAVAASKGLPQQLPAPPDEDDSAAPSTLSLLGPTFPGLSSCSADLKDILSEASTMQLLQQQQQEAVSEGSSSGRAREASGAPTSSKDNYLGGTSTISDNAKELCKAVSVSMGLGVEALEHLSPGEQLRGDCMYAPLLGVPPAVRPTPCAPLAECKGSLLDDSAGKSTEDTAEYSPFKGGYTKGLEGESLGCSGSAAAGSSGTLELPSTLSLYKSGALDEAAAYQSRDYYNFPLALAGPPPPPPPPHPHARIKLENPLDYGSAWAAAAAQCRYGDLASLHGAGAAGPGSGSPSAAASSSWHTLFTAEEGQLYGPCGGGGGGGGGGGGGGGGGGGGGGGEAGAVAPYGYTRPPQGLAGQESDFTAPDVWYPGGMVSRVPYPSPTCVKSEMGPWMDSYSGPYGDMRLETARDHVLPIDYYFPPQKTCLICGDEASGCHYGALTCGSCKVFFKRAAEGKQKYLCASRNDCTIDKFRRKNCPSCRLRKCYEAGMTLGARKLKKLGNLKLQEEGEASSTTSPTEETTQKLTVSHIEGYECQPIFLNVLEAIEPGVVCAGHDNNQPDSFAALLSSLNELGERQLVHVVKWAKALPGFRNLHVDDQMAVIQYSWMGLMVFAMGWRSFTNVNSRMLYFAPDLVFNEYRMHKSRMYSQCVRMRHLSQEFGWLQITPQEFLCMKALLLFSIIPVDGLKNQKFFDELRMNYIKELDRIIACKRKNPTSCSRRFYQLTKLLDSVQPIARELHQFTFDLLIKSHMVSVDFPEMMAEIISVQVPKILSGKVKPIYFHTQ

The target of assay [6] is T3, Gamma-aminobutyric acid receptor subunit alpha-1 (Rattus norvegicus, UniProt P62813).
In assay [7] the target is D(3) dopamine receptor (Homo sapiens, UniProt P35462).
For assay [8], the target named is T4, Alpha-2A adrenergic receptor (Homo sapiens, UniProt P08913).
T4 sequence (P08913 whole entry): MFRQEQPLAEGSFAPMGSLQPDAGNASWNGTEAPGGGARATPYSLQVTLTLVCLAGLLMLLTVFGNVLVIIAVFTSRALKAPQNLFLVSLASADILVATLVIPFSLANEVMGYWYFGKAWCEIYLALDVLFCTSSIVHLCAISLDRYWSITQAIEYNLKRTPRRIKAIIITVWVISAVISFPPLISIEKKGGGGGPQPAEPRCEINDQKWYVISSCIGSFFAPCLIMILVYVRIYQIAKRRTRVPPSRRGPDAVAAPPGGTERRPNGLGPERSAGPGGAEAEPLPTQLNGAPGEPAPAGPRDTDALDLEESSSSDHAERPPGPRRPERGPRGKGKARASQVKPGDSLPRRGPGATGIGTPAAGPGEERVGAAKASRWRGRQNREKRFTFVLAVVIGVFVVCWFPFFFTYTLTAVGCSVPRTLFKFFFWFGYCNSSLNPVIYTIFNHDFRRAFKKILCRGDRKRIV

For assay [9], the target named is Sodium-dependent noradrenaline transporter (Homo sapiens, UniProt P23975).
In assay [10] the target is T5, Neuropeptide Y receptor type 1 (Homo sapiens, UniProt P25929).
T5 sequence (P25929 whole entry): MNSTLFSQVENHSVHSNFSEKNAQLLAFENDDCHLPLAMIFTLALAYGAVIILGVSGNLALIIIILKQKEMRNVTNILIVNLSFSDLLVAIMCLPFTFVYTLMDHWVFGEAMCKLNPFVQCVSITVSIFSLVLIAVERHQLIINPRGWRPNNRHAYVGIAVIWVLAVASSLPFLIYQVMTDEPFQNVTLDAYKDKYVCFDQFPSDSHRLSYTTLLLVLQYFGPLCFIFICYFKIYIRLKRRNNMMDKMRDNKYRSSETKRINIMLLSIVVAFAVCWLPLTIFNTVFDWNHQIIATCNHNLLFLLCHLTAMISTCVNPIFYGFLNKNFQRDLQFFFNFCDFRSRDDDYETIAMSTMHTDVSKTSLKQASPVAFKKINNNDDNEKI

Assay [11] addresses T3, Gamma-aminobutyric acid receptor subunit alpha-1. This is another data set of the same source.
In assay [12] the target is Delta-type opioid receptor (Homo sapiens, UniProt P41143).
The target of assay [13] is Gamma-aminobutyric acid receptor subunit alpha-1/alpha-2/beta-2/gamma-2 (Homo sapiens, UniProt P14867+P18507+P47869+P47870). The format is protein-complex assay.

Each structure is given as a SMILES string. Some results are limits rather than exact numbers.
Note: assay procedure not described here.

Sodium-dependent noradrenaline transporter, sequence (P23975 whole entry): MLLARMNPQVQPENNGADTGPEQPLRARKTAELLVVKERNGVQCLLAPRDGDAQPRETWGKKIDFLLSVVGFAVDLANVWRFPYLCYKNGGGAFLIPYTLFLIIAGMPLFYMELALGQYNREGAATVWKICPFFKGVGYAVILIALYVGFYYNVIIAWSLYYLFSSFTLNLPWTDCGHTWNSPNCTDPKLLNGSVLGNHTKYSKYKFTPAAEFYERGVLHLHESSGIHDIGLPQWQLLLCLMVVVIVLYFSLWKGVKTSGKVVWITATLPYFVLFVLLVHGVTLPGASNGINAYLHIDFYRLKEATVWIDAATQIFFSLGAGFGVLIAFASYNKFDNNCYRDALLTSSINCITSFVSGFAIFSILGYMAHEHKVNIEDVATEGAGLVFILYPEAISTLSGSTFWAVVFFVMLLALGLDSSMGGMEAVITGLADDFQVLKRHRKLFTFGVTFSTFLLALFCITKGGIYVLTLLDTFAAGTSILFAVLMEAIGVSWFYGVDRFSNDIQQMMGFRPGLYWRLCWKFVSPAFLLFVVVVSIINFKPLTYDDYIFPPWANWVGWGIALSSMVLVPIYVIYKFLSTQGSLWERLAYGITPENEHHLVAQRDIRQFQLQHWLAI
T3 sequence (P62813 whole entry): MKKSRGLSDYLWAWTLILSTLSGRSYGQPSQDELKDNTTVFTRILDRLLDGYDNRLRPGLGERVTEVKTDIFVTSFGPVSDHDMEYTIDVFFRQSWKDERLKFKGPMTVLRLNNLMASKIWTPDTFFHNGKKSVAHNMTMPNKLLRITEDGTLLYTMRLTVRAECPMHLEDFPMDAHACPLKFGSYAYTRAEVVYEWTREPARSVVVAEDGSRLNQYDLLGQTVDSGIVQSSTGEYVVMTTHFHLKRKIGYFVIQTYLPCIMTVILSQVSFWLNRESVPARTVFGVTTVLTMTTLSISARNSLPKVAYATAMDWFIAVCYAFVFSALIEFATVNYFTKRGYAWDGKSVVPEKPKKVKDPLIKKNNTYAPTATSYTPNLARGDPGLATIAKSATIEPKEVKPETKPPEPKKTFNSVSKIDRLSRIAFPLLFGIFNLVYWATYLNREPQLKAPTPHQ
Acetylcholinesterase, sequence (P22303 whole entry): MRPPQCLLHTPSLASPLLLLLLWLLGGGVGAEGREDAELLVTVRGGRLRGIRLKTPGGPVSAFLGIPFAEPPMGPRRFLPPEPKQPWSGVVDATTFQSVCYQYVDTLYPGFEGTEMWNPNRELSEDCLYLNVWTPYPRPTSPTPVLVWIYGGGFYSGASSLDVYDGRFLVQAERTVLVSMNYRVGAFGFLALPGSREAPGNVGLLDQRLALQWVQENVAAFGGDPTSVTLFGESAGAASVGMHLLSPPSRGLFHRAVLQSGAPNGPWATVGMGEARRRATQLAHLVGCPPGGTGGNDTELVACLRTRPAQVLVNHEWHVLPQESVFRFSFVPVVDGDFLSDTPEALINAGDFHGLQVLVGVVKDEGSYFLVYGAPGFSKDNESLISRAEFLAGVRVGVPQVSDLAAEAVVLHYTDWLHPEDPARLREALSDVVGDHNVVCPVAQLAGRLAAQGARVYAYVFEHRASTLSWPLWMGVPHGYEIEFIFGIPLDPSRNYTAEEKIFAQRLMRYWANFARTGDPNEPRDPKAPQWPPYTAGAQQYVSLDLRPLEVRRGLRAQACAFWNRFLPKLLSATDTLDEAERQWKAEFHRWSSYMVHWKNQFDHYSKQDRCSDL
D(3) dopamine receptor, sequence (P35462 whole entry): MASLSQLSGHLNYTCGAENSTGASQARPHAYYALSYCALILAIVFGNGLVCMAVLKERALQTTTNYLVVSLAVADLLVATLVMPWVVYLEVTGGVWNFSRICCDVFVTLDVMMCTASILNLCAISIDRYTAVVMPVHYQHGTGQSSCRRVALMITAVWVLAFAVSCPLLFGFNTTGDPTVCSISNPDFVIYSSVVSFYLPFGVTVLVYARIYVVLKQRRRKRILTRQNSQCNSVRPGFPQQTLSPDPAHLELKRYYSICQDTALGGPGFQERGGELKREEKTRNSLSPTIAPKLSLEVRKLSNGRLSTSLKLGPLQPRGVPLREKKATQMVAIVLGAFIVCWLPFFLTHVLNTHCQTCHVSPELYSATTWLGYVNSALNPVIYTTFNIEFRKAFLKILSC
D(1A) dopamine receptor, sequence (P21728 whole entry): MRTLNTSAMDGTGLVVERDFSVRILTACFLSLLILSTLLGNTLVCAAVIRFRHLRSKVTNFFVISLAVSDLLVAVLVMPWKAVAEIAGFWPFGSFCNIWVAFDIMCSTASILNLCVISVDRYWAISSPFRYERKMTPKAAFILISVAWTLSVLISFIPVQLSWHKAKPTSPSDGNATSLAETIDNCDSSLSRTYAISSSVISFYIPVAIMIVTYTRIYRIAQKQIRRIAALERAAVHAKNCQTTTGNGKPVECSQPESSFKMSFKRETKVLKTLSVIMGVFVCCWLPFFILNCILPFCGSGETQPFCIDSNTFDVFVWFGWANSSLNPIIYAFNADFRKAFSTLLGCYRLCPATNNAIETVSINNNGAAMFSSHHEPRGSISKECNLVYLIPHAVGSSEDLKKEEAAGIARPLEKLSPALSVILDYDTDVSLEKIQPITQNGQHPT
Sodium-dependent dopamine transporter, sequence (Q01959 whole entry): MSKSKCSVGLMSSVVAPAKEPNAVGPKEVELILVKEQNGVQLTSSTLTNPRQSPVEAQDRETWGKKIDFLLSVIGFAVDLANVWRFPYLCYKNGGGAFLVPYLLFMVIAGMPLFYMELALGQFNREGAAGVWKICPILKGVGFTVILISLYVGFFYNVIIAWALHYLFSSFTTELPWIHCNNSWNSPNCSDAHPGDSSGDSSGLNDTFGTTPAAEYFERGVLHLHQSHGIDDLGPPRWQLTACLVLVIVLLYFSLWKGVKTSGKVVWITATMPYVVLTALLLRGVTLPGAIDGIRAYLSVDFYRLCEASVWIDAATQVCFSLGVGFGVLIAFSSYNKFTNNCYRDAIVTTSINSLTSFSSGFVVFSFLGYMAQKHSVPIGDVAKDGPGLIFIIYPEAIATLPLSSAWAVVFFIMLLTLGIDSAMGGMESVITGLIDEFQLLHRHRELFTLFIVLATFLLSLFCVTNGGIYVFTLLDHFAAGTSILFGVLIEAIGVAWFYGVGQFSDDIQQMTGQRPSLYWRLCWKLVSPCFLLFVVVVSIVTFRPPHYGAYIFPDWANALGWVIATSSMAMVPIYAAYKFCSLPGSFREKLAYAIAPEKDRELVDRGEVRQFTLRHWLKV
Delta-type opioid receptor, sequence (P41143 whole entry): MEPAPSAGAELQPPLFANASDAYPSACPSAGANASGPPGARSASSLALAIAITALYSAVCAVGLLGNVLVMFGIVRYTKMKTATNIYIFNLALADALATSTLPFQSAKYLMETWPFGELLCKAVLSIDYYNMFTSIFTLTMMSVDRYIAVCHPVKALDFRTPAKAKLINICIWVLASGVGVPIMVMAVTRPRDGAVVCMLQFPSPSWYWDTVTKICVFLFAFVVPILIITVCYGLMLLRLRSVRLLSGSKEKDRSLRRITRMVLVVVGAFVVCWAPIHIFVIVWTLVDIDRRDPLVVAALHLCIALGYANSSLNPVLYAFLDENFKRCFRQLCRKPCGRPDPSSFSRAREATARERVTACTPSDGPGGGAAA

Turning to `CC(C)(C)CC(C)(C)c1ccc(O)c(Cc2ccc(Cl)cc2Cl)c1` [CLOFOCTOL], the AC50 was greater than 30 µM in assay [1]; 3.54 µM in assay [2]; 29.7 µM in [3]; greater than 30 µM in assay [4]; 14.9 µM in assay [5]; greater than 30 µM in [6]. The AC50 is 1.48 µM in assay [7], greater than 30 µM in assay [8] and 3.4 µM in assay [9].
As to `O=C(Oc1ccc2c(c1)CCCN2C(=O)C(Cl)Cl)c1ccco1` [QUINFAMIDE], the half-maximal activity concentration (AC50) in [1], in assay [2], in assay [3], in [4], in [5] and in assay [6] was greater than 30 µM in each case. Further, the concentration at half-maximal activity (AC50) in assay [7], in [8] and in assay [9] was greater than 30 µM throughout.
As to `O=C(Nc1ccc(Cl)cc1)Nc1ccc(Cl)c(Cl)c1` [TRICLOCARBAN], the AC50 in assay [1] was greater than 30 µM; in assay [2] it was greater than 10 µM; in [3] it was greater than 30 µM; in assay [4] it was greater than 30 µM; in [5] it was greater than 30 µM; in assay [6], greater than 30 µM. Also, the results for the AC50 in assay [7], in assay [8] and in assay [9] were greater than 30 µM, greater than 30 µM and 0.863 µM, respectively.
As to `Nc1nc2nc[nH]c2c(=S)[nH]1` [THIOGUANINE], the half-maximal activity concentration (AC50) in assay [1], in [2], in assay [3], in assay [4], in assay [5] and in [6] was greater than 30 µM throughout. For the same compound, the AC50 in assay [7], in assay [8] and in [9] was greater than 30 µM throughout.
Consider `CC(CNC(=O)c1ccccc1)C(=O)OCC(=O)[C@@]12OC(C)(C)O[C@@H]1C[C@H]1[C@@H]3CCC4=CC(=O)C=C[C@]4(C)[C@@]3(F)[C@@H](O)C[C@@]12C` (some centres not stated) [TRIAMCINOLONE BENETONIDE], for which the AC50 in assay [1], in assay [2], in assay [3], in [4], in [5] and in [6] was greater than 30 µM in each case. Further, the concentration at half-maximal activity (AC50) in assay [7], in assay [8] and in [9] was greater than 30 µM each time.
On to `N=C1CCCN1Cc1[nH]c(=O)[nH]c(=O)c1Cl`, for which the AC50 in assay [1], in [2], in [3], in [4], in assay [5] and in assay [6] was greater than 30 µM in each case. For the same compound, the AC50 in assay [8] and in assay [9] was greater than 30 µM each time.
Regarding `CC(=O)OCC1=C(C(=O)O)N2C(=O)[C@@H](NC(=O)[C@H](N)c3ccccc3)[C@H]2SC1` [CEPHALOGLYCIN], the AC50 in assay [1], in [2], in [3], in assay [4], in assay [5] and in [6] was greater than 30 µM each time. Further, the AC50 in assay [7], in assay [8] and in assay [9] was greater than 30 µM each time.
For `OC(c1ccccc1)(c1ccccc1)C12CC[N+](CCOCc3ccccc3)(CC1)CC2`, the AC50 is greater than 30 µM in [1]; 0.898 µM in assay [2]; greater than 30 µM in assay [3]; greater than 30 µM in assay [4]; greater than 30 µM in assay [5]; greater than 30 µM in assay [6]. For the same compound, the AC50 in assay [7] is greater than 30 µM; in [8], greater than 30 µM; in assay [9], 2.73 µM.
In the case of `CC[C@]1(O)C[C@H]2CN(CCc3c([nH]c4ccccc34)[C@@](C(=O)OC)(c3cc4c(cc3OC)N(C=O)[C@H]3[C@@](O)(C(=O)OC)[C@H](OC(C)=O)[C@]5(CC)C=CCN6CC[C@]43[C@@H]65)C2)C1` [VINCRISTINE], the AC50 in assay [1], in [2], in assay [3], in assay [4], in assay [5] and in assay [6] was greater than 30 µM each time. Moreover, the AC50 in [7], in assay [8] and in assay [9] was greater than 30 µM in each case.
On to `CCCC1O[C@@H]2C[C@H]3[C@@H]4CCC5=CC(=O)C=C[C@]5(C)[C@H]4[C@@H](O)C[C@]3(C)[C@]2(C(=O)CO)O1` (some centres not stated) [BUDESONIDE], for which the AC50 is greater than 30 µM in assay [1]; greater than 30 µM in [2]; greater than 30 µM in [3]; greater than 10 µM in assay [10]; greater than 10 µM in [11]; greater than 30 µM in assay [12]. The concentration at half-maximal activity (AC50) in [4], in [7], in assay [8], in assay [9] and in assay [13] was greater than 30 µM each time.
Regarding `Nc1ccc(S(=O)(=O)c2cnc(N)s2)cc1` [THIAZOLSULFONE], the AC50 was greater than 30 µM in assay [1]; 24.3 µM in assay [2]; greater than 30 µM in assay [3]; greater than 30 µM in assay [4]; greater than 30 µM in assay [5]; greater than 30 µM in [6]. Also, the AC50 in assay [7], in assay [8] and in [9] was greater than 30 µM each time.
Consider `OC(CCN1CCCCC1)(c1ccccc1)c1ccccc1` [PRIDINOL], for which the half-maximal activity concentration (AC50) in assay [1], in assay [2], in assay [3], in assay [4], in assay [5] and in assay [6] was greater than 30 µM throughout. Also, the AC50 in [8] and in [9] was greater than 30 µM throughout.
As to `Nc1ccncc1N` [AMIFAMPRIDINE], the AC50 in assay [1], in [2], in [3], in assay [4], in assay [6] and in assay [7] was greater than 30 µM in each case. Moreover, the AC50 in [8], in [9] and in assay [13] was greater than 30 µM each time.
